Reference: patent US20260216294A1, “BETA 2-ADRENERGIC RECEPTOR AGONISTS FOR TREATMENT OR PREVENTION OF MUSCLE WASTING” (ATROGI AB, priority 2023, published 2026)

Key:
[1] = test system: L6-myotubes; assay: Measurement of intracellular cAMP levels in differentiated L6-myotubes (Biological Example 3); assay type: cell-based; conditions: for Emax at 10 µM: 0.25 h
How it was run: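 Intracellular cAMP quantified by AlphaScreen after ethanol extraction and lysis of L6 myotubes. Cells were serum-starved overnight, then exposed for 15 min to compound (final 1×10^−5 M) or isoprenaline in IBMX-containing (1 mM) HBSS buffer, pH 7.4.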

[2] = test system: L6-myotubes; assay: Glucose uptake in differentiated L6-myotubes (Biological Example 2); assay type: cell-based; conditions: for Emax at 10 µM: read-out: Biological example 2 (GU)
How it was run: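 Uptake was quantified as radioactivity in 0.2 M NaOH lysates after a 10 min pulse of 50 nM ^3H-2-deoxyglucose. The pulse followed two agonist exposures at 1×10^−5 M final (isoprenaline or test compound): 1 h 40 min, then 20 min in glucose-free medium after washing. L6 myotubes had been starved overnight in medium with 0.5% fatty-acid-free BSA.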

[3] = intracellular cAMP in differentiated L6-myotubes, compound at 10 μM, activity relative to isoproterenol at 10 μM
[4] = glucose uptake in differentiated L6-myotubes, compound at 10 μM, activity relative to isoproterenol at 10 μM
[5] = intracellular cAMP, compound at 10 μM relative to isoproterenol at 10 μM
[6] = glucose uptake, compound at 10 μM relative to isoproterenol at 10 μM

Structure (SMILES) | Emax at 10 µM [1, 3] | Emax at 10 µM [2, 4] | Emax at 10 µM [1, 5] | Emax at 10 µM [2, 6] | also measured
CO[C@H]1CC[C@@H](C(C)(C)NC[C@H](O)c2cccc(F)c2)CC1 [Compound 251, (R)-1-(m-fluorophenyl)-2-{1-methyl-1-[(1s,4S)-4-methoxycyclohexyl]ethylamino}-1-ethanol] | < 25% | < 25% | – | – | –
CCCCNC[C@H](O)c1cccc(N)c1F [Compound 90, (R)-1-(3-amino-2-fluorophenyl)-2-(butylamino)-1-ethanol] | – | – | < 25% | 50 to 75% | –
CC(C)(C)NC[C@H](O)c1ccc(F)cc1O [Compound 80, (R)-2-(tert-butylamino)-1-(4-fluoro-2-hydroxyphenyl)-1-ethanol] | – | – | < 25% | 50 to 75% | –
O[C@H](c1cccc(F)c1)C12CCC(COc3ccc(Cl)cc3)(CC1)N2 [Compound 441, (R)-{4-[(p-chlorophenoxy)methyl]-7-azabicyclo[[2.2.1]]hept-1-yl}(m-fluorophenyl)methanol] | < 25% | > 75% | – | – | –
CC(=O)N(Cc1ccccc1)[C@H]1CC[C@@H](C[C@@H]2CC[C@H]([C@@H](O)c3cccc(F)c3)N2)CC1 [Compound 479, N-[(1R,4s)-4-({(2S,5R)-5-[(S)-(m-fluorophenyl) hydroxymethyl]-2-pyrrolidinyl}methyl)cyclohexyl]-N-benzylacetamide] | < 25% | < 25% | – | – | –
Oc1ccc(C(O)CNCCCC2CC2)cc1 (stereo not drawn) [Compound 30, 2-(3-cyclopropylpropylamino) -1-(p-hydroxyphenyl)-1-ethanol] | – | – | < 25% | > 75% | –
O[C@@H](CNC[C@H]1CC[C@H](OCc2ccccc2)CC1)c1cccc(F)c1 [Compound 271, (R)-1-(m-fluorophenyl)-2-({[(1r,4R)-4-(benzyloxy)cyclohexyl]methyl}amino)-1-ethanol] | < 25% | 25 to 50% | – | – | –
CO[C@H]1CC[C@@H](CCC(C)(C)NC[C@H](O)c2cccc(F)c2)CC1 [Compound 264, (R)-2-{1,1-dimethyl-3-[(1s,4R)-4-methoxycyclohexyl]propylamino}-1-(m-fluorophenyl)-1-ethanol] | 25 to 50% | > 75% | – | – | –
CC1(C)C[C@@H]([C@H](O)c2cncc(F)c2)N1 [Compound 216] | < 25% | 25 to 50% | – | – | –
CO[C@H]1CCC[C@@H](C(C)(C)NC[C@H](O)c2cncc(F)c2)C1 [Compound 270, (R)-2-{1-[(1R,3S)-3-methoxycyclohexyl]-1-methylethylamino}-1-(5-fluoro-3-pyridyl)-1-ethanol] | 50 to 75% | > 75% | – | – | –
CC1(C)CC[C@H]([C@H](O)c2cncc(O)c2)N1 [Compound 167, 5-{(R)-[(R)-5,5-dimethyl-2-pyrrolidinyl] hydroxymethyl}-3-pyridinol] | – | – | < 25% | 50 to 75% | –
O[C@@H](CNCC[C@H]1CC[C@H](O)CC1)c1cccc(F)c1 [Compound 298, (R)-1-(m-fluorophenyl)-2-{2-[(1r,4R)-4-hydroxycyclohexyl]ethylamino}-1-ethanol] | < 25% | 25 to 50% | – | – | –
CC1(C)CC[C@@H]([C@H](O)c2cccc(F)c2)N1 [Compound 144] | – | – | < 25% | < 25% | –
CC(C)(C)NC[C@H](O)c1cccc(F)c1F [Compound 76, (R)-2-(tert-butylamino)-1-(2,3-difluorophenyl)-1-ethanol] | – | – | 25 to 50% | > 75% | –
O[C@@H](c1cccc(F)c1)C12CCC(CCc3cccnc3)(CC1)N2 [Compound 446, (R)-(m-fluorophenyl){4-[2-(3-pyridyl)ethyl]-7-azabicyclo[[2.2.1]]hept-1-yl}methanol] | – | – | – | – | Biological example 3 (CAMP) [1, 3]: ++ (if it is between 75 and 50% it is denoted with ++); Biological example 2 (GU) [2, 4]: +++ (If a compound at 10 μM shows activity of more than 75% of that of isoproterenol at 10 μM, the activity is denoted with +++)
CCC[C@@H]1CC[C@@H]([C@@H](O)c2cccc(F)c2)N1 [Compound 133, (S)-[(2,5R)-5-propyl-2-pyrrolidinyl](m-fluorophenyl)methanol] | – | – | < 25% | 50 to 75% | –
O[C@H](c1cccc(F)c1)C12CCC(C/C=C/c3ccccc3)(CC1)N2 [Compound 534] | < 25% | > 75% | – | – | –
CC(C)(C[C@H]1CC[C@@H](NC(=O)OC(C)(C)C)CC1)NC[C@H](O)c1cccc(C(F)(F)F)n1 [Compound 450, (1R,4s)-4-(2-{(S)-2-hydroxy-2-[6-(trifluoromethyl)-2-pyridyl]]ethylamino}-2-methylpropyl)cyclohexyl 2-methyl-2-propanecarbamate] | < 25% | < 25% | – | – | –

Structure (SMILES) | Emax at 10 µM [1, 3] | Emax at 10 µM [2, 4] | Emax at 10 µM [1, 5] | Emax at 10 µM [2, 6] | also measured
CCC[C@H]1CCC[C@@H]([C@H](O)c2cccc(Cl)c2)N1 [Compound 123] | – | – | < 25% | 25 to 50% | –
CC(C)(CC[C@H]1CC[C@H](O)CC1)NC[C@H](O)c1cncc(F)c1 [Compound 289, (R)-2-{1,1-dimethyl-3-[(1r,4S)-4-hydroxycyclohexyl]propylamino}-1-(5-fluoro-3-pyridyl)-1-ethanol] | < 25% | 25 to 50% | – | – | –
CCC[C@H]1CCC[C@H]([C@@H](O)c2ccccc2F)N1 [Compound 106, (S)-[(2R,6S)-6-propyl-2-piperidyl](o-fluorophenyl)methanol] | – | – | < 25% | 25 to 50% | –
CCCCNC[C@H](O)c1cnc(NC(=O)C(C)C)s1 [Compound 74, N-{5-[(S)-2-(butylamino)-1-hydroxyethyl]-1,3-thiazol-2-yl}2-methylpropionamide] | – | – | < 25% | 25 to 50% | –
CO[C@H]1CC[C@H](C[C@H]2CC[C@H]([C@@H](O)c3cccc(F)c3)N2)CC1 [Compound 334, (S)-[(2R,5R)-5-{[(1r,4R)-4-methoxycyclohexyl]methyl}-2-pyrrolidinyl] (m-fluorophenyl)methanol] | < 25% | 25 to 50% | – | – | –
CC(C)(NC[C@H](O)c1cccc(F)c1)[C@H]1CC[C@H](NS(C)(=O)=O)CC1 [Compound 385, (R)-1-(m-fluorophenyl)-2-{1-methyl-1-[(1r,4R)-4-(mesylamino)cyclohexyl]ethylamino}-1-ethanol] | < 25% | 50 to 75% | – | – | –
CC(C)(C[C@H]1CC[C@H](NC(=O)OC(C)(C)C)CC1)NC[C@H](O)c1cccc(F)c1 [Compound 420, (1R,4r)-4-{2-[(R)-2-(m-fluorophenyl)-2-hydroxyethylamino]-2-methylpropyl}cyclohexy-2-methyl-2-propanecarbamate] | 25 to 50% | 50 to 75% | – | – | –
CC(C)(C)NCC(O)c1ccncc1O (stereo not drawn) [Compound 134, 4-[2-(tert-butylamino)-1-hydroxyethyl]-3-pyridinol] | – | – | < 25% | > 75% | –
CCC[C@@H]1CCC[C@@H]([C@@H](O)c2cccc(Cl)c2)N1 [Compound 114] | – | – | < 25% | 25 to 50% | –
CC1(C)C[C@@H]([C@@H](O)c2cncc(F)c2)N1 [Compound 215] | < 25% | 25 to 50% | – | – | –
CS(=O)(=O)N(Cc1ccccc1)CC12CCC([C@H](O)c3cccc(F)c3)(CC1)N2 [Compound 537, (R)-(4-{[(benzyl)-N-mesylamino]methyl}-7-azabicyclo[[2.2.1]]hept-1-yl)(m-fluorophenyl)methanol] | 25 to 50% | 50 to 75% | – | – | –
O[C@@H](c1cccc(F)c1)C12CCC(C/C=C/c3ccccc3)(CC1)N2 [Compound 533, (S)-{4-[(E)-3-phenyl-2-propenyl]-7-azabicyclo[[2.2.1]]hept-1-yl}(m-fluorophenyl)methanol] | < 25% | < 25% | – | – | –
CCCC1(CCC)CC[C@H]([C@@H](O)c2cccc(F)c2)N1 [Compound 158, (S)-[(R)-5,5-dipropyl-2-pyrrolidinyl](m-fluorophenyl)methanol] | – | – | < 25% | < 25% | –
CC1(C)C[C@H]([C@H](O)c2cccc(Cl)c2)N1 [Compound 230] | < 25% | > 75% | – | – | –
O[C@@H](c1cccc(F)c1)C12CCC(COCc3ccc(Cl)cc3)(CC1)N2 [Compound 395, (S)-(4-{[(p-chlorophenyl)methoxy]methyl}-7-azabicyclo[[2.2.1]]hept-1-yl)(m-fluorophenyl)methanol] | < 25% | 50 to 75% | – | – | –
CC12CC(C1)[C@@H]([C@@H](O)c1ccccc1F)N2 [Compound 211, (S)-{(S)-1-methyl-2-azabicyclo[[2.1.1]]hex-3-yl}(o-fluorophenyl)methanol] | < 25% | > 75% | – | – | –
O[C@@H](CNCC[C@H]1CC[C@H](OCc2ccccc2)CC1)c1cncc(F)c1 [Compound 292, (R)-1-(5-fluoro-3-pyridyl)-2-{2-[(1r,4R)-4-(benzyloxy)cyclohexyl]ethylamino}-1-ethanol] | < 25% | < 25% | – | – | –
CC(C)(C[C@H]1CC[C@H](NS(C)(=O)=O)CC1)NC[C@H](O)c1cccc(C#N)n1 [Compound 426, 6-[(S)-2-{1,1-dimethyl-2-[(1r,4S)-4-(mesylamino)cyclohexyl]ethylamino}-1-hydroxyethyl]-2-pyridinecarbonitrile] | < 25% | > 75% | – | – | –
